Results from PubChem BioAssay (NCI).
“And” between values parts separate entries of the source, which are not always exact repeats. Identical values can stand only once.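 Five compound concentrations were applied to cells in 96-well plates for 48 hours; endpoints were derived by simple linear interpolation of the resulting dose-response curve. Abbreviation: GI50, concentration required for 50% inhibition of growth. TGI: total growth inhibition.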

How the values were obtained:
Assay in all cases: DTP human tumour cell line panel, 48 h
NCI-H226 lung = system: NCI-H226 lung
HOP-92 NSCLC = system: HOP-92 NSCLC
IGROV1 ovarian = system: IGROV1 ovarian
UACC-62 melanoma = system: UACC-62 melanoma
SF-268 CNS = system: SF-268 CNS
LOX IMVI melanoma = system: LOX IMVI melanoma
PC-3 prostate = system: PC-3 prostate
MDA-MB-231 breast = system: MDA-MB-231 breast

| SMILES | TGI (NCI-H226 lung) | GI50 (HOP-92 NSCLC) | TGI (HOP-92 NSCLC) | TGI (IGROV1 ovarian) | TGI (UACC-62 melanoma) | TGI (SF-268 CNS) | TGI (LOX IMVI melanoma) | GI50 (PC-3 prostate) | TGI (PC-3 prostate) | GI50 (NCI-H226 lung) | GI50 (MDA-MB-231 breast) | TGI (MDA-MB-231 breast) | GI50 (IGROV1 ovarian) | GI50 (UACC-62 melanoma) | GI50 (SF-268 CNS) | GI50 (LOX IMVI melanoma) |
| --- | --- | --- | --- | --- | --- | --- | --- | --- | --- | --- | --- | --- | --- | --- | --- | --- |
| CC(=O)[O-].CC(=O)[O-].O=C(N/N=C/c1cc(Cl)cc(Cl)c1O)c1ccncc1.[Cu+2] | > 100 µM | > 100 µM | > 100 µM | > 100 µM | > 100 µM | > 100 µM | > 100 µM | – | – | – | – | – | – | – | – | – |
| Cc1ccc(-c2nc(N3CCNCC3)c3oc(-c4ccc(C)cc4)nc3n2)cc1 | > 64.7 µM | 11.5 µM | 26.5 µM | 3.81 µM | 28.6 µM | 5.61 µM | 3.46 µM | 1.77 µM | 3.43 µM | > 44.1 µM | 1.77 µM | 3.45 µM | 1.92 µM | 13.3 µM | 2.25 µM | 1.88 µM |
| O=C(O)C(Cl)Cl | > 10000 µM | 3630 µM and > 10000 µM | > 10000 µM | > 10000 µM | > 10000 µM | > 10000 µM | > 10000 µM | > 10000 µM | > 10000 µM | 8130 µM and > 10000 µM | > 10000 µM | > 10000 µM | > 10000 µM | 6710 µM and > 10000 µM | 4970 µM and > 10000 µM | 7490 µM and > 10000 µM |
| COc1ccccc1NC(=O)c1cc2cc(Br)ccc2cc1O | 6.06 µM | 1.34 µM | 4.78 µM | 6.56 µM | 8.23 µM | 16.2 µM | 8.8 µM | 1.83 µM | 6.79 µM | 1.65 µM | 2.05 µM | 5.69 µM | 1.6 µM | 1.7 µM | 3.21 µM | 2.69 µM |
| O=C1c2c(F)c(F)c(F)c(F)c2C(=O)N1c1ccc(F)cc1F | 50.8 µM | 13.8 µM | 31.9 µM | 19.3 µM | 14.3 µM | 27.8 µM | 5.11 µM | 6.21 µM | 27.2 µM | 17.2 µM | 5.53 µM | 19.5 µM | 6.54 µM | 4.11 µM | 10.1 µM | 1.5 µM |
| OC(c1cc(C(F)(F)F)nc2c(C(F)(F)F)cccc12)C1CCCCN1 (stereo unspecified) | 3.7 µM | 1.01 µM | 3.69 µM | 5.58 µM | 4.47 µM | 13.1 µM | 3.15 µM | 2.17 µM | 5.88 µM | 1.8 µM | 1.78 µM | 3.45 µM | 2.21 µM | 1.89 µM | 3.57 µM | 1.65 µM |
| CC(=C(c1ccc(OCCN2CCCCC2)cc1)c1ccc(OCCN2CCCCC2)cc1)c1ccc(Cl)cc1 | 0.962 µM | 0.343 µM | 0.711 µM | 0.82 µM | 0.845 µM | 0.873 µM | 0.754 µM | 0.412 µM | 0.825 µM | 0.457 µM | 0.425 µM | 0.806 µM | 0.432 µM | 0.442 µM | 0.436 µM | 0.406 µM |
| NCCNCCNCCN | > 100 µM | > 100 µM | > 100 µM | > 100 µM | > 100 µM | > 100 µM | > 100 µM | > 100 µM | > 100 µM | > 100 µM | > 100 µM | > 100 µM | > 100 µM | > 100 µM | > 100 µM | > 100 µM |
| C#Cc1cccc(Nc2nc3cc([N+](=O)[O-])ccc3nc2Nc2ccc(O)cc2)c1 | – | 1.79 µM | 3.6 µM | 4.37 µM | 2.99 µM | 3.45 µM | 2.69 µM | 1.65 µM | 3.91 µM | – | 1.8 µM | 3.8 µM | 1.78 µM | 1.62 µM | 1.56 µM | 1.38 µM |
| CC(=O)N[C@@H](Cc1ccc(OP(=O)(O)O)cc1)C(=O)N[C@H]1CCC(=O)N2CCC[C@@H](C(=O)Nc3cccc4ccccc34)N2C1=O | > 25 µM | > 23.9 µM | > 25 µM | > 25 µM | > 25 µM | > 25 µM | > 25 µM | > 25 µM | > 25 µM | > 25 µM | > 25 µM | > 25 µM | > 25 µM | > 25 µM | > 25 µM | > 25 µM |
| O=C(Nc1nn2c(-c3cc(C(F)(F)F)cc(C(F)(F)F)c3)nnc2s1)C1CCCC1 | > 100 µM | 0.197 µM | 0.876 µM | > 100 µM | – | > 100 µM | > 100 µM | 0.603 µM | > 100 µM | 1.23 µM | 1.12 µM | 4.01 µM | 0.553 µM | 0.253 µM | 1.08 µM | 0.807 µM |
| CC(=O)OC1(C)N=NC2(CCCCC2)O1 (stereo unspecified) | > 100 µM | – | > 100 µM | > 100 µM | > 100 µM | > 100 µM | > 100 µM | – | > 100 µM | – | – | > 100 µM | – | – | – | – |
| C=C(C)C12OC1[C@@]1(C)C(=CC2=O)CCC(O)[C@@H]1C (stereo partly specified) | – | – | 93.9 µM | 13.3 µM | 75.4 µM | 14.7 µM | 16.6 µM | – | 27.8 µM | – | – | 7.11 µM | – | – | – | – |
| C=C1C[C@H](O)[C@H](Br)C(C)(C)[C@@]12CCC(C)=C(Cl)C2 | – | 0.208 µM | 0.802 µM | 11.7 µM | 3.15 µM | 6.25 µM | 2.07 µM | 0.0573 µM | 1.87 µM | – | 0.345 µM | 2.33 µM | 0.25 µM | 0.675 µM | 0.396 µM | 0.483 µM |
| COc1ccc(CN2C(=O)C(Cl)=C(Nc3cccc(C(F)(F)F)c3)C2=O)cc1 | 17.4 µM | 0.885 µM | 27 µM | – | 19.1 µM | 16.6 µM | 14.1 µM | 4.61 µM | 37.3 µM | 2.57 µM | 3.39 µM | 18 µM | – | 5.33 µM | 3.67 µM | 3.08 µM |
| CC1(C)[C@@H](NOCCCN)CC[C@]2(C)[C@H]3C(=O)C=C4[C@@H]5C[C@](C)(C(=O)O)CC[C@]5(C)CC[C@@]4(C)[C@]3(C)CC[C@@H]12 | 19.2 µM | 2.38 µM | 12.3 µM | 24.6 µM | 14.8 µM | 21.6 µM | – | 3.66 µM | 19 µM | 5.46 µM | 8.57 µM | 22.1 µM | 12.2 µM | 3.85 µM | 8.92 µM | – |
